Reference: the supplement of paper PMC11451515

System: NOMO1
Assay: cell viability relative to DMSO control; higher = less cytotoxic
Conditions: 48 h
How it was run: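 Library compounds in DMSO were pin-dosed in an 11-point threefold series (47 μM to 0.79 nM) onto leukemia cells in 1536-well plates (5 μl). Plates held 500 cells/well of NOMO1 or SEM or 1000 cells/well of P12-Ichikawa, each adapted for at least four passages in each medium. Luminescence was read with CellTiter-Glo One after 48 h at 37°C. Viability means the per-plate percentage relative to DMSO wells, using cell-free wells as background.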

[1] = HPLM + 10% dialyzed FBS, 0.000781 µM
[2] = HPLM + 10% dialyzed FBS, 0.00234 µM
[3] = HPLM + 10% dialyzed FBS, 0.00702 µM
[4] = HPLM + 10% dialyzed FBS, 0.0211 µM
[5] = HPLM + 10% dialyzed FBS, 0.0632 µM
[6] = HPLM + 10% dialyzed FBS, 0.19 µM
[7] = HPLM + 10% dialyzed FBS, 0.569 µM
[8] = HPLM + 10% dialyzed FBS, 1.71 µM
[9] = HPLM + 10% dialyzed FBS, 5.12 µM
[10] = HPLM + 10% dialyzed FBS, 15.4 µM
[11] = HPLM + 10% dialyzed FBS, 46.1 µM
[12] = RPMI 5 mM glucose + 10% FBS, 0.000781 µM
[13] = RPMI 5 mM glucose + 10% FBS, 0.00234 µM
[14] = RPMI 5 mM glucose + 10% FBS, 0.00702 µM
[15] = RPMI 5 mM glucose + 10% FBS, 0.0211 µM
[16] = RPMI 5 mM glucose + 10% FBS, 0.0632 µM
[17] = RPMI 5 mM glucose + 10% FBS, 0.19 µM
[18] = RPMI 5 mM glucose + 10% FBS, 0.569 µM
[19] = RPMI 5 mM glucose + 10% FBS, 1.71 µM
[20] = RPMI 5 mM glucose + 10% FBS, 5.12 µM
[21] = RPMI 5 mM glucose + 10% FBS, 15.4 µM
[22] = RPMI 5 mM glucose + 10% FBS, 46.1 µM
[23] = RPMI 5 mM glucose + 10% dialyzed FBS, 0.000781 µM
[24] = RPMI 5 mM glucose + 10% dialyzed FBS, 0.00234 µM
[25] = RPMI 5 mM glucose + 10% dialyzed FBS, 0.00702 µM
[26] = RPMI 5 mM glucose + 10% dialyzed FBS, 0.0211 µM
[27] = RPMI 5 mM glucose + 10% dialyzed FBS, 0.0632 µM
[28] = RPMI 5 mM glucose + 10% dialyzed FBS, 0.19 µM
[29] = RPMI 5 mM glucose + 10% dialyzed FBS, 0.569 µM
[30] = RPMI 5 mM glucose + 10% dialyzed FBS, 1.71 µM
[31] = RPMI 5 mM glucose + 10% dialyzed FBS, 5.12 µM
[32] = RPMI 5 mM glucose + 10% dialyzed FBS, 15.4 µM
[33] = RPMI 5 mM glucose + 10% dialyzed FBS, 46.1 µM

Row | SMILES | cell viability [1] [%] | cell viability [2] [%] | cell viability [3] [%] | cell viability [4] [%] | cell viability [5] [%] | cell viability [6] [%] | cell viability [7] [%] | cell viability [8] [%] | cell viability [9] [%] | cell viability [10] [%] | cell viability [11] [%] | cell viability [12] [%] | cell viability [13] [%] | cell viability [14] [%] | cell viability [15] [%] | cell viability [16] [%] | cell viability [17] [%] | cell viability [18] [%] | cell viability [19] [%] | cell viability [20] [%] | cell viability [21] [%] | cell viability [22] [%] | cell viability [23] [%] | cell viability [24] [%] | cell viability [25] [%] | cell viability [26] [%] | cell viability [27] [%] | cell viability [28] [%] | cell viability [29] [%] | cell viability [30] [%] | cell viability [31] [%] | cell viability [32] [%] | cell viability [33] [%]
1 | O=C(Nc1ccncc1)C(=O)c1cn(Cc2ccc(Cl)cc2)c2ccccc12 | 106 | 110 | 116 | 105 | 77.9 | 38.1 | 34 | 32.7 | 36.2 | 60.6 | 61.7 | 95.5 | 98.1 | 89.3 | 89.2 | 100 | 46.2 | 26.3 | 22.6 | 53.7 | 44.1 | 61.9 | 88.2 | 91.2 | 116 | 106 | 80.4 | 45.4 | 28.3 | 34.7 | 45.3 | 39.7 | 49.4
2 | Cc1ccc(Nc2nccc(N(C)c3ccc4c(C)n(C)nc4c3)n2)cc1[S+](N)(=O)[O-] | 107 | 118 | 102 | 112 | 121 | 129 | 126 | 112 | 132 | 112 | 50.9 | 93.9 | 101 | 92.1 | 103 | 99.5 | 101 | 107 | 114 | 105 | 100 | 50.3 | 95.8 | 92.1 | 102 | 85.4 | 104 | 112 | 105 | 123 | 110 | 97.2 | 71.1
3 | O=C(Nc1cccc2c(=O)cc(-c3nnn[nH]3)oc12)c1ccc(OCCCCc2ccccc2)cc1 | 75.4 | 80.8 | 104 | 107 | 100 | 110 | 94.1 | 102 | 95 | 83.9 | 8.37 | 73.4 | 81.2 | 85.2 | 84.6 | 84.4 | 93.7 | 90.1 | 88.6 | 79 | 81.5 | 10.5 | 82.8 | 95.1 | 91.7 | 97.5 | 94.1 | 88.9 | 94.4 | 83.3 | 80.3 | 73.7 | 22.8
4 | COc1cc([S+](C)(=O)[O-])ccc1Nc1nc2ccc(-c3ccc(NC(=O)[C@H](C)c4ccc(F)cc4)cc3)cn2n1 | 104 | 120 | 139 | 146 | 157 | 137 | 139 | 99.3 | 109 | 101 | 100 | 106 | 129 | 122 | 131 | 134 | 123 | 124 | 92.4 | 101 | 94.9 | 97.2 | 114 | 117 | 123 | 130 | 120 | 136 | 129 | 92.7 | 96.3 | 96.1 | 88.8
5 | Oc1ccc(C2CNCCc3c2cc(O)c(O)c3Cl)cc1 (centres undefined) | 91.8 | 106 | 93.7 | 106 | 107 | 101 | 85.3 | 106 | 115 | 103 | 115 | 86 | 90.1 | 81.7 | 96.5 | 93.6 | 80.7 | 90.7 | 96.3 | 85.8 | 90.3 | 87.4 | 84.1 | 95.9 | 98.2 | 95.6 | 99.9 | 94.3 | 95.7 | 93.4 | 95.2 | 101 | 88.5
6 | CN(C)Cc1cccc(N/C(=C2\C(=O)Nc3cc(C(=O)N(C)C)ccc32)c2ccccc2)c1 | 99.3 | 105 | 112 | 112 | 91.1 | 118 | 110 | 97.9 | 74.8 | 58.2 | 28.8 | 100 | 105 | 101 | 105 | 103 | 107 | 95.2 | 92.4 | 84.6 | 68.5 | 55 | 95.7 | 88.9 | 95.9 | 96.4 | 107 | 99.6 | 112 | 112 | 81.2 | 73 | 61.6
7 | Cc1nc(C(=O)NCC(=O)O)c(O)c2ccc(Oc3ccccc3)cc12 | 106 | 113 | 113 | 119 | 113 | 116 | 104 | 101 | 118 | 97.4 | 107 | 99.4 | 105 | 95.7 | 87.2 | 94.5 | 104 | 86.6 | 94.9 | 84.5 | 102 | 92.5 | 84.4 | 85.3 | 108 | 105 | 116 | 98.2 | 96.2 | 94.9 | 82.2 | 104 | 99.4
8 | Cc1n[nH]c2ccc(-c3cncc(OC[C@@H](N)Cc4c[nH]c5ccccc45)c3)cc12 |  |  |  |  |  |  |  |  |  |  |  | 108 | 114 | 116 | 118 | 117 | 77.4 | 92.6 | 33.2 | 8.24 | 1.64 | 1.13 | 104 | 112 | 93.1 | 94.6 | 93.1 | 63.5 | 63.6 | 29.6 | 5.35 | 1.27 | 0.733
9 | CCOC(=O)c1c(/C(C#N)=C\N)c2ccc(Cl)c(Cl)c2n1C | 89.9 | 95.7 | 94.3 | 95 | 72.6 | 101 | 91.1 | 87.2 | 94 | 95.8 | 103 | 81.9 | 80.7 | 82.5 | 92 | 80.4 | 77.3 | 79.7 | 88 | 80.8 | 78.6 | 95.3 | 90.7 | 90.1 | 87.7 | 91.4 | 79.2 | 77 | 86 | 86.8 | 87.2 | 77.6 | 101
10 | CCCCC(F)(F)[C@@]1(O)CC[C@H]2[C@@H](CC(=O)[C@@H]2CCCCCCC(=O)O)O1 |  |  |  |  |  |  |  |  |  |  |  | 123 | 123 | 126 | 115 | 118 | 117 | 115 | 108 | 121 | 111 | 103 |  |  |  |  |  |  |  |  |  |  | 
11 | CN1CCN(CC1)C/2=N/C3=CC=CC=C3NC4=C2C=C(C)S4 | 94.5 | 101 | 102 | 109 | 110 | 96.1 | 93.5 | 86.3 | 86.6 | 75.5 | 77.1 | 89.8 | 85.5 | 80.5 | 88.5 | 100 | 82.4 | 96.7 | 83.9 | 86.1 | 82 | 97.1 | 86.1 | 72.9 | 78.6 | 85 | 88.9 | 86.9 | 99.3 | 89.4 | 76.2 | 69.7 | 81.2
12 | CC1(C)CCC(=C(\C1)C2=CC=C(Cl)C=C2)/CN3CCN(CC3)C4=CC(=C(C=C4)C(=O)N[S+]([O-])(=O)C5=CC=C(NCC6CCOCC6)C(=C5)[N+]([O-])=O)OC7=CN=C8[NH]C=CC8=C7 | 103 | 110 | 95.8 | 91.9 | 113 | 71.8 | 63.2 | 55.3 | 55.1 | 45.8 | 39 | 93.7 | 84.4 | 99.3 | 89.4 | 85.4 | 76.2 | 61.3 | 62.7 | 63.2 | 43 | 33.6 | 97 | 95 | 96.2 | 76.7 | 66.4 | 57.7 | 49 | 38.2 | 42.9 | 28 | 23.9
13 | COc1ccccc1OCC(O)CN1CCN(CC(=O)Nc2c(C)cccc2C)CC1 (centres undefined) | 109 | 117 | 142 | 142 | 129 | 157 | 168 | 154 | 138 | 138 | 137 | 115 | 131 | 125 | 167 | 139 | 155 | 141 | 136 | 144 | 139 | 141 |  |  |  |  |  |  |  |  |  |  | 
14 | O=C(O)C(=O)Nc1cccc(-c2nnn[nH]2)c1 | 96.8 | 117 | 117 | 119 | 114 | 108 | 130 | 114 | 123 | 106 | 116 | 94.3 | 102 | 109 | 95.8 | 111 | 108 | 97.3 | 106 | 108 | 120 | 99.2 | 109 | 103 | 111 | 99.2 | 112 | 106 | 126 | 104 | 113 | 113 | 120
15 | CC(C)C[C@@H](C(=O)N[C@H](C(=O)OC1CCCC1)c1ccccc1)[C@H](O)C(=O)NO | 107 | 114 | 112 | 119 | 126 | 107 | 104 | 122 | 103 | 96.2 | 33.6 | 111 | 102 | 117 | 117 | 103 | 107 | 103 | 99.3 | 99 | 92.6 | 13 | 114 | 114 | 122 | 122 | 100 | 119 | 102 | 118 | 106 | 91.2 | 16
16 | CON(C)C(=O)N1\N=C(/S[C@]1(CCCN)C2=CC=CC=C2)C3=CC(=CC=C3F)F | 65 | 41.6 | 39.2 | 46.7 | 46.2 | 40.4 | 30.8 | 37.2 | 32.1 | 24.7 | 24.1 | 55.1 | 22.8 | 26.3 | 27.1 | 21.7 | 20 | 23.4 | 22.8 | 20.6 | 15.6 | 15.7 | 96 | 30.7 | 36.8 | 35 | 32.2 | 31.2 | 27.9 | 32.6 | 28.5 | 22.6 | 22.5
